Source: patent publication US11731956B2, “Substituted 1,2,4-triazoles as intermediates in the synthesis of TYK2 inhibitors” (Alumis Inc., priority 2018, dated 2023)
Values belong to the compound of their own block, whether it stands above or below them.

Key:
[1] = Pharmacokinetic study in Sprague Dawley rats; format: in vivo; settings: rat, plasma
Procedure: (§1) The pharmacokinctics of test compounds were evaluated in male C57BL/6 mice, Sprague Dawley rats, Beagle dogs, and cynomolgus monkeys when administered via oral gavage and IV injection. The animals were fasted overnight before administration. Plasma samples were collected predose and at 0.5, 1, 3, 6, 9, 12, and 24 hours postdose. The samples were analyzed by LC/MS/MS and the concentration of test compound at each timepoint was determined by linear regression. Pharmacokinetic parameters were calculated from the plasma concentrations using Pheonix WinNonlin.

[2] = Pharmacokinetic study in Beagle dogs; format: in vivo; settings: dog, plasma
Procedure: as §1

[3] = Pharmacokinetic study in cynomolgus monkeys; format: in vivo
Procedure: as §1

[4] = Pharmacokinetic study in C57BL/6 mice; format: in vivo, male C57BL/6 mice
Procedure: as §1

[5] = Oral (2 mg/kg), NA: no detectable
[6] = cynomolgus monkey, plasma, iv, I.V. (1 mg/kg)
[7] = male, mouse, plasma, Oral (10 mg/kg)
[8] = male, mouse, plasma, iv, I.V. (2 mg/kg)
[9] = iv, I.V. (1 mg/kg), read-out: Vdss
[10] = cynomolgus monkey, plasma, Oral (2 mg/kg), NA: no detectable

C0 [3, 6]: 787 ± 61 ng/mL
Structure (SMILES): [2H]C([2H])([2H])CC(=O)c1cnc(Nc2ccc(C(O)(C([2H])([2H])[2H])C([2H])([2H])[2H])c(F)n2)cc1Nc1ncccc1S(C)(=O)=O [Example 203]

CL ([4]; I.V. (2 mg/kg)): 17.3 mL · kg − 1 · min − 1
Vdss ([4]; I.V. (2 mg/kg)): 0.785 L/kg
Cmax ([4]; Oral (10 mg/kg)): 1899 ng/mL
F % ([4]; Oral (10 mg/kg)): 66.6%
Tmax ([4]; Oral (10 mg/kg)): 0.500 h
AUC [4, 7]: 6400 ng·h/mL
AUC [4, 8]: 1910 ng·h/mL
C0 [4, 8]: 3340 ng/mL
C0 ([1]; iv, I.V. (1 mg/kg)): 1980 ± 101 ng/mL
C0 ([2]; iv, I.V. (1 mg/kg)): 469 ± 255 ng/mL
Structure (SMILES): [2H]C([2H])([2H])CC(=O)c1cnc(Nc2ccc(C(C)(C)O)c(F)n2)cc1Nc1cccc(-c2ncn(C([2H])([2H])[2H])n2)c1OC [Example 202]

C0 ([1]; iv, I.V. (1 mg/kg)): 1190 ± 116 ng/mL
C0 ([2]; iv, I.V. (1 mg/kg)): 458 ± 336 ng/mL
Cmax [3, 5]: 13.9 ± 2 ng/mL
F % [3, 5]: 4.67 ± 1.5%
Tmax [3, 5]: 2.33 ± 1.5 h
C0 [3, 6]: 849 ± 50 ng/mL
Structure (SMILES): [2H]C([2H])([2H])CC(=O)c1cnc(Nc2ccc(C(C)(C)O)c(F)n2)cc1Nc1nccc(-c2ncn(C([2H])([2H])[2H])n2)c1OC [Example 201]

C0 ([1]; iv, I.V. (1 mg/kg)): 414 ± 56 ng/mL
C0 ([2]; iv, I.V. (1 mg/kg)): 334 ± 96 ng/mL
Structure (SMILES): [2H]C([2H])([2H])CC(=O)c1cnc(Nc2cccc(C#N)n2)cc1Nc1nccc(-c2ncn(C([2H])([2H])[2H])n2)c1OC [Example 199]

Continued, compound first:

Structure (SMILES): [2H]C([2H])([2H])CC(=O)c1cnc(Nc2cccc(C#N)n2)cc1Nc1cccc(-c2ncn(C([2H])([2H])[2H])n2)c1OC [Example 198]
C0 ([1]; iv, I.V. (1 mg/kg)): 1200 ± 70 ng/mL
C0 ([2]; iv, I.V. (1 mg/kg)): 182 ± 47.6 ng/mL
Cmax [3, 5]: 246 ± 124 ng/mL
F % [3, 5]: 59.4 ± 21.1%
Tmax [3, 5]: 4 ± 0 h
C0 [3, 6]: 667 ± 82 ng/mL

Structure (SMILES): [2H]C([2H])([2H])NC(=O)c1nnc(NC(=O)C2CC2)cc1Nc1cccc(-c2ncn(C)n2)c1OC [control, BMS-986165, reference compound]
AUC [4, 7]: 8870 ng·h/mL
bioavailability [4, 7]: 86.7%
half-life [4, 7]: 2.96 h
Cmax ([4]; male, mouse, plasma, Oral (10 mg/kg), read-out: Cmax): 4700 ng/mL
Tmax ([4]; male, mouse, plasma, Oral (10 mg/kg), read-out: Tmax): 0.25 h
AUC [4, 8]: 2040 ng·h/mL
C0 [4, 8]: 3220 ng/mL
clearance [4, 8]: 15.6 mL/min/kg
half-life [4, 8]: 2.19 h
Vd ([4]; male, mouse, plasma, iv, I.V. (2 mg/kg), read-out: Vdss): 1.56 L/kg
AUC ([1]; Oral (5 mg/kg)): 3200 ± 600 ng·h/mL
Cmax ([1]; Oral (5 mg/kg)): 792 ± 260 ng/mL
Tmax ([1]; Oral (5 mg/kg)): 1 ± 0.87 h
bioavailability ([1]; Oral (5 mg/kg)): 32.6 ± 5.4%
half-life ([1]; Oral (5 mg/kg)): 2.93 ± 1.2 h
AUC ([1]; iv, I.V. (1 mg/kg)): 1970 ± 166 ng·h/mL
C0 ([1]; iv, I.V. (1 mg/kg)): 1740 ± 276 ng/mL
clearance ([1]; iv, I.V. (1 mg/kg)): 8.41 ± 0.7 mL/min/kg
half-life ([1]; iv, I.V. (1 mg/kg)): 2.42 ± 1.7 h
Vd [1, 9]: 0.933 ± 0.12 L/kg
AUC ([2]; Oral (2 mg/kg)): 1310 ± 579 ng·h/mL
Cmax ([2]; Oral (2 mg/kg)): 222 ± 46 ng/mL
Tmax ([2]; Oral (2 mg/kg)): 1.67 ± 0.58 h
bioavailability ([2]; Oral (2 mg/kg)): 35.5 ± 15%
half-life ([2]; Oral (2 mg/kg)): 6.21 ± 2.9 h
AUC ([2]; iv, I.V. (1 mg/kg)): 1900 ± 349 ng·h/mL
C0 ([2]; iv, I.V. (1 mg/kg)): 559 ± 34 ng/mL
clearance ([2]; iv, I.V. (1 mg/kg)): 8.85 ± 1.7 mL/min/kg
half-life ([2]; iv, I.V. (1 mg/kg)): 4.43 ± 0.87 h
Vd [2, 9]: 2.27 ± 0.23 L/kg
AUC [3, 10]: 3190 ± 1630 ng·h/mL
bioavailability [3, 10]: 27.8 ± 14%
half-life [3, 10]: 10.6 ± 3.8 h
Cmax ([3]; cynomolgus monkey, plasma, Oral (2 mg/kg), NA: no detectable, read-out: Cmax): 247 ± 136 ng/mL
Tmax ([3]; cynomolgus monkey, plasma, Oral (2 mg/kg), NA: no detectable, read-out: Tmax): 5.33 ± 1.2 h
AUC [3, 6]: 5740 ± 1170 ng·h/mL
C0 [3, 6]: 1420 ± 264 ng/mL
clearance [3, 6]: 2.79 ± 0.74 mL/min/kg
half-life [3, 6]: 7.54 ± 1.6 h
Vd ([3]; cynomolgus monkey, plasma, iv, I.V. (1 mg/kg), read-out: Vdss): 1.2 ± 0.042 L/kg

Structure (SMILES): [2H]C([2H])([2H])CC(=O)c1cnc(NC(=O)C2CC2)cc1Nc1nccc(-c2ncn(C([2H])([2H])[2H])n2)c1OC [Example 200]
CL ([4]; I.V. (2 mg/kg)): 7.35 mL · kg − 1 · min − 1
Vdss ([4]; I.V. (2 mg/kg)): 1.5 L/kg
Cmax ([4]; Oral (10 mg/kg)): 4193 ng/mL
F % ([4]; Oral (10 mg/kg)): 85.1%
Tmax ([4]; Oral (10 mg/kg)): 0.250 h
AUC [4, 7]: 19300 ng·h/mL
AUC [4, 8]: 4480 ng·h/mL
C0 [4, 8]: 2390 ng/mL
C0 ([1]; iv, I.V. (1 mg/kg)): 1030 ± 47 ng/mL
C0 ([2]; iv, I.V. (0.5 mg/kg)): 29.7 ± 14 ng/mL
clearance ([2]; iv, I.V. (0.5 mg/kg)): 8.17 ± 2.6 mL/min/kg
Cmax [3, 5]: 384 ± 22 ng/mL
F % [3, 5]: 27.7 ± 1.7%
Tmax [3, 5]: 2.0 ± 0 h
C0 [3, 6]: 677 ± 81 ng/mL

Structure (SMILES): [2H]C([2H])([2H])CC(=O)c1cnc(NC(=O)C2CC2)cc1Nc1cccc(-c2ncn(C([2H])([2H])[2H])n2)c1OC [Example 195]
CL ([4]; I.V. (2 mg/kg)): 4.16 mL · kg − 1 · min − 1
Vdss ([4]; I.V. (2 mg/kg)): 0.688 L/kg
Cmax ([4]; Oral (10 mg/kg)): 4295 ng/mL
F % ([4]; Oral (10 mg/kg)): 41.7%
Tmax ([4]; Oral (10 mg/kg)): 0.500 h
AUC [4, 7]: 16700 ng·h/mL
AUC [4, 8]: 7990 ng·h/mL
C0 [4, 8]: 2950 ng/mL
C0 ([1]; iv, I.V. (1 mg/kg)): 2150 ± 123 ng/mL
C0 ([2]; iv, I.V. (1 mg/kg)): 185 ± 8.4 ng/mL
Cmax [3, 5]: 663 ± 497 ng/mL
F % [3, 5]: 16.6 ± 9.95%
Tmax [3, 5]: 4.0 ± 0 h
C0 [3, 6]: 1290 ± 106 ng/mL
